{
  "source": "patent US7919456B2",
  "about": "“Connective tissue derived polypeptides” (Proteobioactives Pty Ltd., priority 2003, dated 2011)",
  "tested_on": "rat collagen induced arthritis (CIA) model",
  "assay": "Rat collagen induced arthritis (CIA), prophylactic/therapeutic protocol",
  "format": "in vivo, Female Wistar rats",
  "details": "6.3 mg/kg SC",
  "key": {"[1]": {"details": "15 days treatment, n = 4, scored 0-4+"}},
  "data": [
    {"compound": "O=C(O)CC([S-])C(=O)O.[Au+]", "note": "(stereo not drawn) [ATM, aurothiomalate]", "values": [
      {"measurement": "Signs of arthritis Day 15 Weight change", "result": "+47 g"},
      {"measurement": "Signs of arthritis Day 18 Weight change", "result": "+04 g"},
      {"measurement": "Mean arthritis scores Day 13", "setting": "[1]", "result": 0.8},
      {"measurement": "Mean arthritis scores Day 15", "setting": "[1]", "result": 2.1},
      {"measurement": "Mean arthritis scores Day 18", "setting": "[1]", "result": 2.1},
      {"measurement": "Signs of arthritis Day 15 F/paw swell", "setting": "fore paw", "result": 2.5, "unit": "mm"},
      {"measurement": "Signs of arthritis Day 18 F/paw swell", "setting": "fore paw", "result": 3.2, "unit": "mm"},
      {"measurement": "Signs of arthritis Day 15 R/paw swell", "setting": "rear paw", "result": 0.7, "unit": "mm"},
      {"measurement": "Signs of arthritis Day 18 R/paw swell", "setting": "rear paw", "result": 0.8, "unit": "mm"}
    ]}
  ]
}
